The record followed here is ChEMBL document CHEMBL4052772, “Design, synthesis and biological evaluation of novel 4-phenoxyquinoline derivatives containing 3-oxo-3,4-dihydroquinoxaline moiety as c-Met kinase inhibitors” (Bioorg Med Chem, 2017).

In assay [1] the test system is NCI-H460. Nature of the assay: Antiproliferative activity against human H460 cells after 72 hrs by MTT assay. As to conditions: NCI-H460, 72 h. For orientation: Formazan colour is commonly taken as a measure of viable cells.
Assay [2] has as its system U-87 MG. Nature of the assay: Antiproliferative activity against human U87MG cells after 72 hrs by MTT assay.
Assay [3] relates to HT-29. Put plainly: cells. As to conditions: Homo sapiens, HT-29, 72 h.
Assay [4] relates to A549. Put plainly: cells. As to conditions: Homo sapiens, A549, 72 h.
Description: Antiproliferative activity against human A549 cells after 72 hrs by MTT assay
Assay [5] has as its system MKN-45. Nature of the assay: cells. As to conditions: Homo sapiens, MKN-45, 72 h.
Description: Antiproliferative activity against human MKN45 cells after 72 hrs by MTT assay
Assay [6] deals with Hepatocyte growth factor receptor (Homo sapiens, UniProt P08581). Put plainly: Inhibition of c-Met (unknown origin) using poly (Glu, Tyr) 4:1 as substrate after 30 mins by HTRF assay.
The target in assay [7] is Mast/stem cell growth factor receptor Kit (Homo sapiens, UniProt P10721). Put plainly: Inhibition of c-Kit (unknown origin) using poly (Glu, Tyr) 4:1 as substrate after 30 mins by HTRF assay. On the technique in general: Time-resolved FRET reads energy transfer from a long-lived donor to a nearby acceptor.
The target of assay [8] is Platelet-derived growth factor receptor alpha (Homo sapiens, UniProt P16234). Nature of the assay: Inhibition of PDGFRalpha (unknown origin) using poly (Glu, Tyr) 4:1 as substrate after 30 mins by HTRF assay.
Assay [9] deals with Macrophage-stimulating protein receptor (Homo sapiens, UniProt Q04912). Put plainly: Inhibition of Ron (unknown origin) using poly (Glu, Tyr) 4:1 as substrate after 30 mins by HTRF assay.
Assay [10] deals with Vascular endothelial growth factor receptor 2 (Homo sapiens, UniProt P35968). Nature of the assay: Inhibition of VEGFR2 (unknown origin) using poly (Glu, Tyr) 4:1 as substrate after 30 mins by HTRF assay.
Assay [11] concerns the target T1, Receptor-type tyrosine-protein kinase FLT3 (Homo sapiens, UniProt P36888).
T1 sequence (P36888 whole entry): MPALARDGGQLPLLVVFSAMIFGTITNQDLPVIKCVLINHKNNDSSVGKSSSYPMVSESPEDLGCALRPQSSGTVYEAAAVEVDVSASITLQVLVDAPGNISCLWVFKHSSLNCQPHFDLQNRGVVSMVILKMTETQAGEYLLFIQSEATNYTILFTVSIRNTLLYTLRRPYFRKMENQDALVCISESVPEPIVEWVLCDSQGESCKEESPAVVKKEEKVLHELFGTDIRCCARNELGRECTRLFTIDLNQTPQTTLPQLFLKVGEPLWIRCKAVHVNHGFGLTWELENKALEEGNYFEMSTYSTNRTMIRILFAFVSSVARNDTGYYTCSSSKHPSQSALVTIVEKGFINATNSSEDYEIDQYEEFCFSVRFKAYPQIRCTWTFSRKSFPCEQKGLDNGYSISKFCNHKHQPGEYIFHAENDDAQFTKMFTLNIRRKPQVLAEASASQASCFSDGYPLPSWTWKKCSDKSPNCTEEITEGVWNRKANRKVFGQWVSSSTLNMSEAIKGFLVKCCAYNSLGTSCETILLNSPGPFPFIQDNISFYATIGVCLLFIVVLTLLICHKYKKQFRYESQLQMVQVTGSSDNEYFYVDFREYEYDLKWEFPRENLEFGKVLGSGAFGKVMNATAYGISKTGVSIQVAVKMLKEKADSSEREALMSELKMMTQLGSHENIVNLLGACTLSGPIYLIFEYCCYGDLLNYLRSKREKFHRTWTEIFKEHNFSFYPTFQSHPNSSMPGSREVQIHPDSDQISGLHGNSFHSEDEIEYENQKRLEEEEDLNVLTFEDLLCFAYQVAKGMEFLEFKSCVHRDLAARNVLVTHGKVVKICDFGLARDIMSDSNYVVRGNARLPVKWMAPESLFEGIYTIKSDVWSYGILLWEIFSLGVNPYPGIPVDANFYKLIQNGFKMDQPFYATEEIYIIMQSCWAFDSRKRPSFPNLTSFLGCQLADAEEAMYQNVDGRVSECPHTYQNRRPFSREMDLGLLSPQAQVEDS
Put plainly: Inhibition of Flt3 (unknown origin) using poly (Glu, Tyr) 4:1 as substrate after 30 mins by HTRF assay.

The target of assay [12] is Epidermal growth factor receptor (Homo sapiens, UniProt P00533). Put plainly: Inhibition of EGFR (unknown origin) using poly (Glu, Tyr) 4:1 as substrate after 30 mins by HTRF assay.
The target of assay [13] is ALK tyrosine kinase receptor (Homo sapiens, UniProt Q9UM73). Put plainly: Inhibition of ALK (unknown origin) using poly (Glu, Tyr) 4:1 as substrate after 30 mins by HTRF assay.

Sequence of Hepatocyte growth factor receptor (P08581 whole entry): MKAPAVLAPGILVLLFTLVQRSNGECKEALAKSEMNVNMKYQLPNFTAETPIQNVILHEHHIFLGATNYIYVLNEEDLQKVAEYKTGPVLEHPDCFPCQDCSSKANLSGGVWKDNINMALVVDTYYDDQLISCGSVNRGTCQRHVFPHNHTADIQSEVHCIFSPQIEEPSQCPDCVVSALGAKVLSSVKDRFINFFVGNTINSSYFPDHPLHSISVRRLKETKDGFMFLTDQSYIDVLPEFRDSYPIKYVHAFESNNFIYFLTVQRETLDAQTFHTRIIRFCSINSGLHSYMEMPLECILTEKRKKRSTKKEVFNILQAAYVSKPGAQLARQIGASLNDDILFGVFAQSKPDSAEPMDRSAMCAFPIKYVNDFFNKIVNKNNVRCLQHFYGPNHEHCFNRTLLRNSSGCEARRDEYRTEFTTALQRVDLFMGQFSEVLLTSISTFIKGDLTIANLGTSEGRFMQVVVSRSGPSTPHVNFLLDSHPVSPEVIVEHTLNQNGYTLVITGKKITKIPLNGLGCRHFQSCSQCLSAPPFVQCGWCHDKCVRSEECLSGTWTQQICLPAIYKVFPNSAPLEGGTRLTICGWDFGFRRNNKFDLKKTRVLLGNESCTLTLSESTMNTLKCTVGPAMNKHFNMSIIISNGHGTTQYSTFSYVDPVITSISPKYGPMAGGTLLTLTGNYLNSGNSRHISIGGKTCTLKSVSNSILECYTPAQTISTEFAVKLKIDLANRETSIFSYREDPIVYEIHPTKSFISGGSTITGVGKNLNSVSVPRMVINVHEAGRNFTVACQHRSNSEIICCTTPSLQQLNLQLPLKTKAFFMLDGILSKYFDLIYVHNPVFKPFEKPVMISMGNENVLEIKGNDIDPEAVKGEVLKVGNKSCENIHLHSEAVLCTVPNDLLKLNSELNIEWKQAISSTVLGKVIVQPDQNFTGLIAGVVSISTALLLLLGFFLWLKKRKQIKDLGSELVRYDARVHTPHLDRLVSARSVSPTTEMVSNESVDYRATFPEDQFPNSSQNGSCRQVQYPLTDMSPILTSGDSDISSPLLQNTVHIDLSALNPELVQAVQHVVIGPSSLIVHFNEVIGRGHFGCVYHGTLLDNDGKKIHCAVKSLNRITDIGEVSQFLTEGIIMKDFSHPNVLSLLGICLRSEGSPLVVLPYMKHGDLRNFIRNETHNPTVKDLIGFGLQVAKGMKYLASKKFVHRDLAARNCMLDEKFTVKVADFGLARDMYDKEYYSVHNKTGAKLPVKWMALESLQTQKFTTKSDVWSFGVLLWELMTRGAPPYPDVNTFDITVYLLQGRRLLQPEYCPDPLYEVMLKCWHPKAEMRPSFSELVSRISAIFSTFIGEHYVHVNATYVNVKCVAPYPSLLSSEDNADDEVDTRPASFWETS
Sequence of Vascular endothelial growth factor receptor 2 (P35968 whole entry): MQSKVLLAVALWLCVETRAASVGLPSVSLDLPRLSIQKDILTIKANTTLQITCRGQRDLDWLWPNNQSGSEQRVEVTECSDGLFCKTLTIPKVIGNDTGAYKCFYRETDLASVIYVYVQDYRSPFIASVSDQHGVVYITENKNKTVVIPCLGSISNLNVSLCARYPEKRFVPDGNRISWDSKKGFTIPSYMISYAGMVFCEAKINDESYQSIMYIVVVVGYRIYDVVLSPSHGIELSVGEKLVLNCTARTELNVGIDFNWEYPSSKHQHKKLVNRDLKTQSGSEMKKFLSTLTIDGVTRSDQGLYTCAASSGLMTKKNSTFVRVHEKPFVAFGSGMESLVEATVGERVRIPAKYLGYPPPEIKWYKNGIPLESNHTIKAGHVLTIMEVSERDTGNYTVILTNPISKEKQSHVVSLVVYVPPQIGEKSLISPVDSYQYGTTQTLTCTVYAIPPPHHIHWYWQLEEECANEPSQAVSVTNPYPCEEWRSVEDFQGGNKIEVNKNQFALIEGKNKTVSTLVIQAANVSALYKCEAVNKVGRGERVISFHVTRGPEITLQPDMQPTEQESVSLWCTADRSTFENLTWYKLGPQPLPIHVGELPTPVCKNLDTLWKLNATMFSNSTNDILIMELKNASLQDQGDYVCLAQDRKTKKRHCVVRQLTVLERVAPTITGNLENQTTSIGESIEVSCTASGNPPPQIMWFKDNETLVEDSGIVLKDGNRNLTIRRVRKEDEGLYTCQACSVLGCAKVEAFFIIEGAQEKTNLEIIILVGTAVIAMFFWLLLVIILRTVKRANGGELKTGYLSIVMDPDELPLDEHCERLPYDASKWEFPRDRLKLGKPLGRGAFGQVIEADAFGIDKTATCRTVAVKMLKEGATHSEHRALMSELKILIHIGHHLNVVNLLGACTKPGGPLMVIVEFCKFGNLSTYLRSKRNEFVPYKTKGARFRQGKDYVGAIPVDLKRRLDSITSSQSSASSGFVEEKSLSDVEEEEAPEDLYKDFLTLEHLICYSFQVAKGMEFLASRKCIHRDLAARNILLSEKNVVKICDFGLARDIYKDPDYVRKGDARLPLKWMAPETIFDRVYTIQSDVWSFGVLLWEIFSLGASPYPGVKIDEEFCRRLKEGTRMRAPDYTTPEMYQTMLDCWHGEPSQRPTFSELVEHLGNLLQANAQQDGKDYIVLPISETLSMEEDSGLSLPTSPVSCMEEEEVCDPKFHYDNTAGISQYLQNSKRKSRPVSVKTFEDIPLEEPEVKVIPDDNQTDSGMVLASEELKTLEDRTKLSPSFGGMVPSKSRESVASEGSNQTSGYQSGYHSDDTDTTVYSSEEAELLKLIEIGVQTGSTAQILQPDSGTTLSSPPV
Sequence of Macrophage-stimulating protein receptor (Q04912 25-304 limits assumed): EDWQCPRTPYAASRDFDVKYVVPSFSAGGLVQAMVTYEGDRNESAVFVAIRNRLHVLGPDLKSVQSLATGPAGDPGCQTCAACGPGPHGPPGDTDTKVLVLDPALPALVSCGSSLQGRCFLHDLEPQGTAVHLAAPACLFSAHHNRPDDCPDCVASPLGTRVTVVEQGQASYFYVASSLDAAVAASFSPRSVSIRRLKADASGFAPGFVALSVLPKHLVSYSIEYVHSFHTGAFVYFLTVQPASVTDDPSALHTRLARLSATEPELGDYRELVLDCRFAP
Sequence of Macrophage-stimulating protein receptor (Q04912 310-1400 limits assumed): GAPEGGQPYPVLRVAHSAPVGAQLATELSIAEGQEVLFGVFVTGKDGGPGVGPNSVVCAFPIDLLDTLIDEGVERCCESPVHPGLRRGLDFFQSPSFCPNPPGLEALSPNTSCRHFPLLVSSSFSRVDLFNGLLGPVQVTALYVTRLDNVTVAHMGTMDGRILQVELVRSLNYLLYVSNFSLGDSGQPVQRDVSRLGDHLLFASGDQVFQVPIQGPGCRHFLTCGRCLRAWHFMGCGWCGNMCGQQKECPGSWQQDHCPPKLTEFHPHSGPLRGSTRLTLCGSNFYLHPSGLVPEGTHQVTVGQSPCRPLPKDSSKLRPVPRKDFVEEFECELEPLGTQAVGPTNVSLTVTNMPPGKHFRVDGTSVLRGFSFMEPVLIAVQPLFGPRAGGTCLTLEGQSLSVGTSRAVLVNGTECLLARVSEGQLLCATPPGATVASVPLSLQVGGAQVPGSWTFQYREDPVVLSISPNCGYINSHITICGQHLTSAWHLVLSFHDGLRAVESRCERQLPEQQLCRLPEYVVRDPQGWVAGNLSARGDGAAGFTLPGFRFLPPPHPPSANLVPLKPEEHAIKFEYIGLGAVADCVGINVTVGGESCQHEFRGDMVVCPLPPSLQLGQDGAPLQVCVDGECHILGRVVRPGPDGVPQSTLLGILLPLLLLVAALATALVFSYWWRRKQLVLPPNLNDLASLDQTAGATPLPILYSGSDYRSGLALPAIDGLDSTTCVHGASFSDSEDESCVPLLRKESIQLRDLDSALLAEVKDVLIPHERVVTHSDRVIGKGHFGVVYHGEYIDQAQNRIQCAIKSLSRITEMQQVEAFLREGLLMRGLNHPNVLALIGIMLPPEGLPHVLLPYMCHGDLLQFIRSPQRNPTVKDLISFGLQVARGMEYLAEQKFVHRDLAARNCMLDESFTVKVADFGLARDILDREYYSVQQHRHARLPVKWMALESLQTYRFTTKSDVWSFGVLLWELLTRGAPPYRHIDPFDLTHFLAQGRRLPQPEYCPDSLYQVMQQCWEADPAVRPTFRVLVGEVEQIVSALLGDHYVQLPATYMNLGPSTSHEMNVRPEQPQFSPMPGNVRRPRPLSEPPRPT
Sequence of Mast/stem cell growth factor receptor Kit (P10721 whole entry): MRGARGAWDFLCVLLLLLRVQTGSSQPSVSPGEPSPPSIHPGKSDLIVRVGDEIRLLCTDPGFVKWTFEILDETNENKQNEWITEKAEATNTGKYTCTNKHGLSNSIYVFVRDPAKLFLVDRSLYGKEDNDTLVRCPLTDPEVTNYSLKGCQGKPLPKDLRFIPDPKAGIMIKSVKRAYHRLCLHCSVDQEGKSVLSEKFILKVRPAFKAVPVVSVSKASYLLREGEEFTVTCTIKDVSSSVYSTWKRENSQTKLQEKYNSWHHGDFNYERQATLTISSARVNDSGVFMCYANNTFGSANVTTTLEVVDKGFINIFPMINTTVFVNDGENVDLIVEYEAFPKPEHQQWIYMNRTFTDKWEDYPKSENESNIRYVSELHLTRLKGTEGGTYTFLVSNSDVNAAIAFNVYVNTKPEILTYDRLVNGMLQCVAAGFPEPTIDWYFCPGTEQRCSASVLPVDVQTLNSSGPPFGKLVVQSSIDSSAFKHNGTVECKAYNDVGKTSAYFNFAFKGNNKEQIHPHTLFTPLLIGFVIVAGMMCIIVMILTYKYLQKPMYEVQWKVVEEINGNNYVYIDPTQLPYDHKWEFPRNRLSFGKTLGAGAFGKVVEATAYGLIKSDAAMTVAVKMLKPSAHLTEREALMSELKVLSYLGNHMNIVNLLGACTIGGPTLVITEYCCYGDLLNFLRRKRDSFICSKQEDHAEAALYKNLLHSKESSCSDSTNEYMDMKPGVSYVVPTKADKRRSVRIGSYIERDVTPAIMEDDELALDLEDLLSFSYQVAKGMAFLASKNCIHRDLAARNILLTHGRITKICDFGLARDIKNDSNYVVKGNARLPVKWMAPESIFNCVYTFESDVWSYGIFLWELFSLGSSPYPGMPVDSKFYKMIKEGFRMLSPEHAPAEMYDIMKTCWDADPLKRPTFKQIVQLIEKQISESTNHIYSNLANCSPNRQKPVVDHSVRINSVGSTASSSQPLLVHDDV

The term IC50 denotes the concentration that gives 50% inhibition. As to `COc1cc2c(Oc3ccc(NC(=O)c4nc5ccccc5n(-c5ccc(Cl)cc5Cl)c4=O)cc3F)ccnc2cc1OCCCN1CCOCC1`, the IC50 in assay [1] amounted to 0.64 µM; in [2], 5.04 µM; in [3] it was 0.59 µM; in assay [4], 0.17 µM; in assay [5], 0.075 µM.
For the compound `COc1cc2c(Oc3ccc(NC(=O)c4nc5ccccc5n(-c5ccccc5Cl)c4=O)cc3F)ccnc2cc1OCCCN1CCOCC1`, the IC50 in [1] amounted to 0.14 µM; in assay [2], 1.5 µM; in [6], 0.00323 µM; in assay [3], 0.15 µM; in assay [4], 0.05 µM; in assay [5], 0.025 µM.
`COc1cc2c(Oc3ccc(NC(=O)c4nc5ccccc5n(-c5cccc(F)c5)c4=O)cc3F)ccnc2cc1OCCCN1CCOCC1`: the IC50 in [1] was 0.4 µM; in assay [2], 1.85 µM; in [3], 0.2 µM; in assay [4] it was 0.31 µM; in assay [5], 0.39 µM.
The matching figures for `COc1cc2c(Oc3ccc(NC(=O)c4nc5ccccc5n(-c5cccc(Cl)c5)c4=O)cc3F)ccnc2cc1OCCCN1CCOCC1`: 0.53 µM, 0.98 µM, 0.33 µM, 0.24 µM and 0.34 µM.
The corresponding values for `COc1cc2c(Oc3ccc(NC(=O)c4nc5ccccc5n(-c5ccccc5C(F)(F)F)c4=O)cc3F)ccnc2cc1OCCCN1CCOCC1` are 0.28 µM, 1.78 µM, 0.19 µM, 0.22 µM and 0.56 µM.
The matching figures for `COc1cc2c(Oc3ccc(NC(=O)c4nc5ccccc5n(-c5ccc(OC(F)(F)F)cc5)c4=O)cc3F)ccnc2cc1OCCCN1CCOCC1`: 0.29 µM, 1.22 µM, 0.2 µM, 0.33 µM and 0.26 µM.
Turning to `COc1ccc(-n2c(=O)c(C(=O)Nc3ccc(Oc4ccnc5cc(OCCCN6CCOCC6)c(OC)cc45)c(F)c3)nc3ccccc32)cc1`, the IC50 is 1.85 µM in assay [1]; > 32 µM in assay [2]; 0.69 µM in [3]; 1.72 µM in [4]; 0.66 µM in assay [5].
Turning to `COc1cc2c(Oc3ccc(NC(=O)c4nc5ccccc5n(-c5ccc(F)cc5)c4=O)cc3F)ccnc2cc1OCCCN1CCN(C)CC1`, the IC50 stood at 0.0009 µM in assay [6]; 0.00245 µM in assay [7]; 0.0191 µM in [8]; 0.0826 µM in assay [9]; 0.152 µM in assay [10]; 0.269 µM in assay [11]. The IC50 came to 0.981 µM in [12] and 2.84 µM in assay [13].
The compound `COc1cc2c(Oc3ccc(NC(=O)c4nc5ccccc5n(-c5ccc(F)cc5)c4=O)cc3F)ccnc2cc1OCCCN1CCCCC1` showed an IC50 in [6] of 0.00803 µM.
For `COc1cc2c(Oc3ccc(NC(=O)c4nc5ccccc5n(-c5ccc(Cl)cc5)c4=O)cc3F)ccnc2cc1OCCCN1CCOCC1`, the 50% inhibitory concentration (IC50) amounted to 0.28 µM in assay [1]; 1.06 µM in assay [2]; 0.00676 µM in [6]; 0.16 µM in [3]; 0.042 µM in assay [4]; 0.029 µM in [5].
For `COc1ccc(-n2c(=O)c(C(=O)Nc3ccc(Oc4ccnc5cc(OCCCN6CCOCC6)c(OC)cc45)c(F)c3)nc3ccccc32)c(OC)c1`, the IC50 in [1] was found to be 2.05 µM; in [2], 16.2 µM; in assay [3] it was 1.29 µM; in assay [4], 5.11 µM; in assay [5], 0.86 µM.
The corresponding values for `COc1cc2c(Oc3ccc(NC(=O)c4nc5ccccc5n(-c5ccc(C)cc5)c4=O)cc3F)ccnc2cc1OCCCN1CCOCC1` are 1.12 µM, 4.17 µM, 1.03 µM, 2.16 µM and 0.58 µM.
On to `COc1cc2c(Oc3ccc(NC(=O)c4nc5ccccc5n(-c5ccccc5F)c4=O)cc3F)ccnc2cc1OCCCN1CCC(C)CC1`, for which the half-inhibitory concentration (IC50) in assay [6] was determined as 0.0131 µM.
In the case of `COc1cc2c(Oc3ccc(NC(=O)c4nc5ccccc5n(-c5ccccc5F)c4=O)cc3F)ccnc2cc1OCCCN1CCOCC1`, the IC50 was found to be 0.23 µM in assay [1]; 0.65 µM in [2]; 0.00452 µM in assay [6]; 0.17 µM in assay [3]; 0.033 µM in [4]; 0.029 µM in assay [5].
Regarding `COc1cc2c(Oc3ccc(NC(=O)c4nc5ccccc5n(-c5ccc(F)cc5)c4=O)cc3F)ccnc2cc1OCCCN1CCOCC1`, the half-inhibitory concentration (IC50) in assay [1] was 0.14 µM; in [2], 0.81 µM; in assay [6], 0.00235 µM; in assay [3], 0.11 µM; in assay [4], 0.03 µM; in [5] it was 0.026 µM.
`COc1cc2c(Oc3ccc(NC(=O)c4nc5ccccc5n(-c5ccccc5)c4=O)cc3F)ccnc2cc1OCCCN1CCOCC1`: the IC50 in assay [1] is 1.04 µM; in [2], 1.72 µM; in assay [3], 0.2 µM; in assay [4], 0.41 µM; in assay [5] it was 0.082 µM.
On to `COc1cc2c(Oc3ccc(NC(=O)c4nc5ccccc5n(-c5ccc(F)cc5)c4=O)cc3F)ccnc2cc1OCCCN1CCC(C)CC1`, for which the half-maximal inhibitory concentration (IC50) in [6] stood at 0.00357 µM.
Consider `COc1cc2c(Oc3ccc(NC(=O)c4nc5ccccc5n(-c5ccc(Br)cc5)c4=O)cc3F)ccnc2cc1OCCCN1CCOCC1`, for which the IC50 in assay [1] was 0.21 µM; in assay [2], 1.17 µM; in [3] it was 0.17 µM; in assay [4], 0.32 µM; in assay [5], 0.11 µM.
